One may read the melting point as the temperature, or range, at which the solid turns liquid. In the case of `COC(=O)c1ccc(Cn2c3c(c4cc(F)cc(F)c42)CCCC3CC(=O)O)cc1` (stereo not drawn), the melting point fell in the range of 169 to 170 °C.
Regarding `COc1cccc(C(=C/C=C/C(=O)NCCCCc2cccnc2)c2cccc(OC)c2)c1`, the melting point lay within 69 to 73 °C.
Take `Nc1c(F)c(-c2ccc(C(F)(F)F)nc2)nc(C=O)c1Cl`: the melting point was in the range of 147 to 149 °C.
On to `COC(=O)c1cc(O)c2c(c1)c1ccccc1n2C`, for which the melting point fell in the range of 204 to 206 °C.
Turning to `O=C1C=C(O[C@@H]2c3cc(C(F)(F)C(F)(F)F)ccc3OC(CF)(CF)[C@H]2O)CC1` (relative stereo), the melting point lay in the range of 165 to 167 °C.
In turn, `O=C(NC[C@@H]1CN2C(=O)C[C@H]2O1)c1cc(F)ccc1F` (racemic) displayed a melting point of 88.8 to 90.7 °C.
`CCC(O)(CC)Cc1ccc(N)cc1` came in with a melting point of 85 to 86 °C.
Compound `Cc1cc(C2(C(F)(F)F)CN=C(c3ccc(Cl)cc3)S2)ccc1NC(=O)c1cccc(I)c1C(=O)NC(C)C` (stereo not drawn) had a melting point of 121 to 123 °C.
`COc1cc(C=O)cc(Cl)c1Cl` returned a melting point of 97 to 98.5 °C.
`O=C(NC(CS)Cc1ccccc1)N1C=CC=CC1` (single isomer, unassigned; (+)) showed a melting point of 115 to 117 °C.
In turn, `COCOc1cc2c(cc1C=O)C(C)(C)CCC2(C)C` returned a melting point of 84 to 85 °C.
`COc1ccc(-c2csc(Nc3ccccn3)n2)cc1OC`: the melting point fell in the range of 211 to 214 °C.
In the case of `Cc1ccc2c(c1)N(CC(=O)c1ccccc1C)C(=O)C(NC(=O)Nc1cccc(C(=O)O)c1)CN2C(=O)c1ccco1` (stereo not drawn), the melting point fell in the range of 219 to 221 °C.
Under `CC(C)(C)OC(=O)Cn1c(=O)c(-c2c(Cl)cccc2Cl)cc2cnc(N)nc21` stands 171 to 173 °C; under `NC(=O)NCc1cc2cc(CN3CCOCC3)cc3c(=O)c(C(=O)NCc4ccc(Cl)cc4)cn1c23`, 250 to 252 °C; under `CCn1c(=O)n(/C(C)=C\SC)c2ccccc21`, 74 °C.
To `CN1CCC23COC(C)(C)OC2C1Cc1ccc(O)cc13` (stereo not drawn) belongs 237 to 238 °C.
The compound `O=C1C=CC(c2ccccc2)(c2ccccc2)C=C1O` gave a melting point of 145 °C.
Under `COCCOn1nnc2ccc(Cn3ccnc3)cc21` stands 77 °C; under `C[C@@H](C(N)=O)c1ccc(NS(=O)(=O)Cc2ccccc2)cc1`, 68 to 70 °C.
Consider `N#Cc1c(OC(F)(F)Br)ncnc1N1CCc2ccccc2CC1`, for which the melting point was 95 to 100 °C.
In the case of `COc1ccc(-c2nnc3cc(-c4ccccc4)c(OCc4ncn(C)n4)nn23)cc1`, the melting point was in the range of 205 to 206 °C.
The compound `O=C(Nc1ccc(CN2C(=O)[C@H]3CCC[C@H]3N(C(=O)CCl)c3ccccc32)cc1)Oc1ccccc1` (relative stereo) had a melting point of 207 to 210 °C.
To `COC(=O)c1ccc(CCSC(C)=O)s1` belongs 67 to 68 °C; to `COC(=O)c1cc(OC)c(O)cc1[N+](=O)[O-]`, 101 to 102 °C.
Compound `O=C1NC(=O)C(Nc2ccc3ccccc3c2)S1` (stereo not drawn) registered a melting point of 200 to 201 °C.
`CC(CS)C(=O)N(CC(=O)O)C1CC1` (stereo not drawn): the melting point lay in the range of 89 to 91 °C.
Turning to `CNc1c(OC)cc(C(=O)OC)cc1OC`, the melting point is 49 to 51 °C.
Turning to `O=[N+]([O-])c1cc2nc(O)c(O)nc2c2[nH]nnc12`, the melting point was > 300 °C.
As to `NCC(O)CN1CCC(C2(c3ccc(F)cc3)OCCO2)CC1` (stereo not drawn), the melting point lay in the range of 132 to 136 °C.
Consider `O=C1c2ccccc2CCn2c(SC(F)(F)F)ccc21`, for which the melting point lay within 95 to 95.5 °C.
`CCOc1c(C(F)(F)F)cc([N+](=O)[O-])c2nc(C(F)(F)F)[nH]c12`: the melting point fell in the range of 144 to 146 °C.
Under `CC(=O)C1=C(O)C(=C(C)Nc2cccc(S(N)(=O)=O)c2)C(=O)OC1=O` stands 237 °C; under `COc1ccc(-c2ccc(C#N)cc2)cc1C(C)=O`, 102 °C.
Consider `CC(C)c1ccc(C(=O)N2CCOCC2)cc1N`, for which the melting point is 112 to 115 °C.
`CN1CCCCC1CCc1ccccc1NC(=O)c1ccc(N)cc1` (stereo not drawn) gave a melting point of 147 to 148 °C.
For `Cc1cc(C(=O)Nc2ccc3cc(CN4CCCC4)cnc3c2C)ccc1-c1ccc(F)cc1`, the melting point was in the range of 200 to 202 °C.
Compound `COC(=C(OC)c1ccccc1OC)c1ccc(N)nn1` displayed a melting point of 139 to 142 °C.
Turning to `COC(=O)c1sc(-c2ccccc2)cc1NC(C)=O`, the melting point amounted to 115 °C.
As for `c1csc(-c2ncc(COc3ccc(CCCCn4ccnc4)cc3)s2)c1`, the melting point was in the range of 128 to 129 °C.
Under `Cc1oc2ccccc2c1C(=O)NCc1ccc2c(Br)c(OCc3nnn[nH]3)ccc2c1` stands 242 to 244 °C; under `CNC(=O)C1CCCc2c1c1cc(OC)ccc1n2Cc1ccccc1` (stereo not drawn), 259 to 261 °C.
As to `O=C(O)c1c(-c2ccccc2)c2cc(OCc3ccccc3)ccc2n1Cc1cc2c(cc1Cl)OCO2`, the melting point lay in the range of 213 to 214 °C.
Take `C=C1Cc2cc3c(cc2C(c2ccc(N(C(C)=O)C(C)=O)cc2)=NN1C(C)=O)OCO3`: the melting point fell in the range of 240 to 245 °C.
`O=CC(=Cc1ccc(OC(=O)c2ccccc2F)cc1)C(C=O)=Cc1ccc(OC(=O)c2ccccc2F)cc1`: the melting point was 197 to 199 °C.
`CCc1nc(N)nc(N)c1CCCc1cccc(-c2ccccc2)c1` showed a melting point of 128 to 133 °C.
With `COc1cc(C=CC(=O)CCCCO)cc(OC)c1`, the melting point lay in the range of 78 to 80 °C.
Regarding `CC(=O)OC(C(Oc1ccc(Cl)cc1)n1ccnc1)C(C)(C)C` (stereo not drawn), the melting point lay in the range of 81 to 91 °C.
On to `COc1cc(OC)c(-c2nc(NC(=O)c3cc4cc(C)cc(C)c4n3CC(=O)O)sc2CCC2CCCCC2)cc1Br`, for which the melting point is 221 to 222 °C.
For `O=C(Nc1ccc(N2CCC2)nc1)c1cc2cc(C(F)(F)F)cnc2n1Cc1cccc(F)c1`, the melting point was 243 to 244 °C.
As to `CN1CCCCNC1=C[N+](=O)[O-]`, the melting point was in the range of 88 to 89 °C.
Under `C[C@@H](N1CCN(S(=O)(=O)c2ccc([N+](=O)[O-])cc2)CC1)[C@](O)(Cn1cncn1)c1ccc(F)cc1F` stands 160 to 162 °C; under `CS(=O)(=O)c1ccc(-c2cc([N+](=O)[O-])sc2-c2ccc(F)cc2)cc1`, 155 to 156 °C; under `CC(C)(C)c1cc(C(=O)c2nccs2)cc2c1OCC2(C)C`, 101 to 103 °C.
In turn, `CCCCCCCCCCCCCCCCSCC(CNS(=O)(=O)CCCCl)NC(=O)OC(C)(C)C` (stereo not drawn) displayed a melting point of 100 to 102 °C.
The compound `C[C@@H](n1cnc2cc(C(F)(F)F)ccc2c1=O)[C@](O)(Cn1cncn1)c1ccc(Cl)cc1Cl` gave a melting point of 158 to 160 °C.
Turning to `CCCCn1c(=O)c2c(NC)n[nH]c2n(CCO)c1=O`, the melting point was 248 to 253 °C.
The compound `CC(C)(C)OC(=O)C1CCCN2C(=O)CC(=O)N12` (stereo not drawn) yielded a melting point of 121 to 122 °C.
`Cc1oc2ccccc2c1C(=O)NCc1ccc2cc(O)ccc2c1`: the melting point is 195 to 198 °C.
Regarding `CCOC(=O)c1cc(-c2csc(N)n2)[nH]n1`, the melting point was 205 to 207 °C.
Compound `CC(C)CC(NC(=O)C(Cc1c[nH]cn1)NC(=O)C(CC(=O)c1ccccc1)Cc1cccc2ccccc12)C(O)C(=O)OC(C)C` (stereo not drawn) showed a melting point of 108 to 118 °C.
The compound `CC(C)Cn1cnc2c(N)nc3cccnc3c21` yielded a melting point of 230 to 232 °C.
To `COC(=O)c1ccc(C#CCCO)cc1` belongs 95.5 to 96 °C; to `Cn1nc(N)c2c(c1=O)OCCNC2Cc1ccccc1` (stereo not drawn), 195 to 196 °C.
Under `NC(=O)C(c1ccccc1)(c1ccccc1)c1ccc(N)cn1` stands 215 to 220 °C; under `Nc1ncnc2c1ncn2Cc1oc2ccc(Br)cc2c(=O)c1-c1ccc(F)cc1`, 238 to 242 °C.
`Cc1ncc2c(c1OCC(=O)O)COC2c1ccccc1` (stereo not drawn): the melting point was 220 °C.
`Cc1ccnc(C(O)c2ccc(N)cc2)c1` (stereo not drawn) came in with a melting point of 156 to 158 °C.
On to `O=C(Nc1cc(OC2CCCC2)c(Cl)cc1F)C1=C(C(=O)NC2CCCCC2)CCCC1`, for which the melting point lay within 209 to 211 °C.
Under `O=C1NC(=O)c2c1c(-c1ccccc1Cl)cc1c2c2cc(O)ccc2n1CCS(=O)(=O)c1ncn[nH]1` stands 301 to 304 °C; under `CO/N=C(/C(=O)O)c1ccc(OCCOc2ccc3ccccc3c2)s1`, 118 to 120 °C.
Regarding `Cc1nc(Br)n(COCc2ccccc2)c1Sc1ccccc1`, the melting point came out at 55 °C.
The compound `CCOC(=O)C1=C(C)N=C(SCc2ccccc2)N(C(=O)OCC)C1c1ccccc1[N+](=O)[O-]` (stereo not drawn) showed a melting point of 110 to 112 °C.
Regarding `COc1ccc(CN2CCC3(CCc4c3n(C)c3ccccc43)CC2)cc1`, the melting point lay in the range of 39 to 40 °C.
The compound `CCOC(=O)c1cc2cc(F)cc(Br)c2[nH]1` gave a melting point of 125 °C.
With `Cn1nnnc1-c1cn(C)c2cc(O)ccc2c1=O`, the melting point was > 320 °C.
In the case of `C1=C(c2c[nH]c3ccccc23)CN(Cc2ccccc2)CC1`, the melting point is 105 to 107 °C.
Under `COc1cccc2c1nc(C(F)F)n2-c1nc(N2CCOCC2)c2ncn(-c3cccnc3)c2n1` stands 229 to 231 °C; under `COC(=O)CCCc1cc2nc(Cl)ccc2n1S(=O)(=O)c1cc(OC)ccc1OC`, 102 °C.
Consider `CCOc1ccc(C=O)c(F)c1F`, for which the melting point is 70 °C.
To `COc1cc(CC(=O)Nc2ccc(I)cc2)ccc1NC(=O)Nc1ccccc1C` belongs > 200 °C; to `CC(C)C[C@@H](C=O)NC(=O)[C@H](Cc1c[nH]cn1)NC(=O)[C@H](Cc1ccccc1)NC(=O)CCCc1ccccc1`, 98 to 103 °C.
To `COc1cc(CCc2c(C=O)ccc(OC)c2OC)cc(OC)c1` belongs 88 to 89 °C.
With `Cc1c(Cl)cccc1N1C(=O)CN(c2ccccc2)C1=S`, the melting point fell in the range of 154 to 156 °C.
To `CCOC(=O)COC1=C(C(=O)Nc2cc(Cl)cc(Cl)c2)SC2=NCCCN21` belongs 165 °C; to `O=c1oc(-c2ccccc2)cc(O)c1C(CC1CC1)SCc1ccccc1` (stereo not drawn), 59 to 61 °C.
Compound `CCCCS(=O)(=O)NC1Cc2ccc(C3=NNC(=O)CC3(C)C)cc2C1` (stereo not drawn) gave a melting point of 159 to 161 °C.
Take `CNc1c(F)cc2c(=O)c(C(=O)O)cn(-c3ccc(F)c(O)c3)c2c1C`: the melting point is > 280 °C.

These data come from a melting point compilation (Tetko et al.; mined from patent text by program, amines drawn as free bases though some values may be those of a salt).
